Data from patent US20230414626A1, “INDUCTION OF FERROPTOSIS FOR CANCER THERAPY” (Memorial Sloan Kettering Cancer Center, priority 2020, published 2023).

Assays:
BT474 cells = assay: Cell death quantification (Sytox Green), RSL3-induced ferroptosis; type: cell-based, human; conditions: RSL3 0.5-1 μM, GDC-0941 2 μM, MK-2206 2 μM, Torin 1 μM, CCI-779 0.5 μM, Fatostatin A 5 μM, CAY10566 5 μM
Description: (§1) FIG. 1 A-D. Oncogenic activation of the PI3K-AKT-mTOR signaling pathway confers resistance to ferroptosis. (A) Genetic background of the analyzed cancer cell lines and their sensitivity to RSL3. (B) Cells were seeded in 96-well plate, 2×10^4 cells per well and incubated overnight. Cell death was induced by 24-h treatment of RSL3 with indicated concentrations. Cell death were measured by Sytox Green staining, as detailed in Methods. (C) Indicated protein components in the PI3K-AKT pathway were detected by western blot in indicated cell types. (D) Cells were treated with or without PI3K inhibitor GDC-0941 (2 μM), AKT inhibitor MK-2206 (2 μM), RSL3 (1 μM), or ferroptosis inhibitor Ferrostatin-1 (Fer-1, 1 μM) as indicated for 12 h (BT474) or 24 h (MDA-MB-453). Cell death was measured. Indicators for P values (same in all other figures): ****, P≤0.0001; *** P≤0.001; **, P≤0.01; *, P≤0.05; ns, P>0.05
(§2) FIG. 2 A-E. mTORC1, instead of mTORC2, suppresses ferroptosis. (A) MDA-MB-453 and BT474 were treated with CCI-779 (0.5 μM), RSL3 (1 μM for MDA-MB-453 cells and 0.5 μM for BT474 cells), and Fer-1 (1 μM) as indicated. (B) Cells were seeded in 6-well plate, 4×10^5 cells per well and incubated overnight. MDA-MB-453 and BT474 cells were treated as indicated. CCI-779, 0.5 μM; RSL3, 1 μM for MDA-MB-453 cells and 0.5 μM for BT474 cells; Fer-1, 1 μM. Cells were stained with 5 μM C1I-BODIPY followed by flow cytometry after 8 h-treatment. (C) 3D spheroids were treated as indicated. CCI-779, 0.5 μM; RSL3, 0.5 μM; Fer-1, 1 μM. Top panel, dead cells were stained by SYTOX Green (scale bar, 100 μm). Bottom panel, cell viability was assayed by measuring cellular ATP levels. (D) Cells expressing shRNAs targeting RPTOR or RICTOR were treated as indicated. CCI-779, 0.5 μM; RSL3, 0.5 μM; Fer-1, 1 μM. (E) Lipid peroxidation of samples as in panel D were measured.
(§3) FIG. 5 A-H. SREBP1 protects cells from ferroptosis through SCD1 activity. (A) The expression of SREBP1, and its targets SCD1, FASN, and ACACA, in control and SREBF1-sgRNA cells were detected by western blot. (B) The mRNA level of SREPF1 and its targets gene SCD were measured by RT-PCR. (C) Cells were pretreated with or without 5 μM CAY10566 overnight, and then subjected to the indicated treatments. RSL3, 0.5 μM for BT474 cells and 1 μM for MDA-MB-453 cells; CAY10566, 5 μM; Fer-1, 1 μM. (D) Cells expressing control or SCD-sgRNA were treated as indicated. RSL3, 1 μM for MDA-MB-453 cells and 0.5 μM for BT474 cells; Fer-1, 1 μM. (E) 3D spheroids derived from BT474 cells harboring control or SCD-sgRNA were treated as indicated. RSL3, 0.5 μM; CCI-779, 0.5 μM; Fer-1, 1 μM. Left, cell death staining (scale bar, 100 m). Right, cell viability. (F) SCD1 was overexpressed in BT474 cells and determined by western blot. Cells were treated as indicated. RSL3, 0.5 μM; CCI-779, 0.5 μM. (G) 3D spheroids derived from BT474 cells with control or SCD1 overexpression were treated as indicated. RSL3, 0.5 μM; CCI-779, 0.5 μM; Fer-1, 1 μM. Left, cell death staining (scale bar, 100 m). Right, cell viability. (H) Cells were treated as indicated. RSL3, 0.5 μM for BT474 and 1 μM for MDA-MB-453; CCI-779, 0.5 μM; Oleic acid (OA), 0.5 mM; stearic acid (SA), 0.5 mM.
(§4) FIG. 7 A-J. PI3K-AKT-mTOR signaling regulates ferroptosis sensitivity. (A) Cells were treated as indicated. GDC-0941, 2 μM; MK-2206, 2 μM; RSL3, 1 μM; Fer-1, 1 μM. Lipid peroxidation was measured. (B) Cells were treated with indicated conditions. Torin, 1 μM; RSL3, 1 μM for MDA-MB-453 cells and 0.5 μM for BT474 cells; Fer-1, 1 μM. Cell death was measured. (C) Cells were treated with indicated conditions. RSL3, 10 μM for MCF cells and PC-3 cells, 5 μM for T47D cells, 1 μM for HepG2 cells; Torin, 1 μM; CCI-779, 0.5 μM. (D) Cells were treated as indicated. CCI-779, 0.5 μM; Torin, 1 μM; Fer-1, 1 μM. Cell death was staining by propidium iodide (PI) (red) or Sytox Green (green) (scale bar, 100 μm). (E-F) 3D spheroids for MDA-MB-453 cells and MCF7 cells were treated as indicated. […]

MDA-MB-453 cells = assay: as above; type: cell-based, human; conditions: RSL3 1 μM, GDC-0941 2 μM, MK-2206 2 μM, Torin 1 μM, CCI-779 0.5 μM, Fatostatin A 5 μM, CAY10566 5 μM
Description: as §1, §2, §3, §4

CCCc1cc(-c2nc(-c3ccc(C)cc3)cs2)ccn1 [Fatostatin A]
sensitization to ferroptosis (cell death) induced by RSL3 (BT474 cells): sensitized ferroptosis
sensitization to ferroptosis (cell death) induced by RSL3 (MDA-MB-453 cells): sensitized ferroptosis

NC1(c2ccc(-c3nc4ccn5c(=O)[nH]nc5c4cc3-c3ccccc3)cc2)CCC1 [MK-2206]
sensitization to ferroptosis (cell death) induced by RSL3 (BT474 cells): sensitized
sensitization to ferroptosis (cell death) induced by RSL3 (MDA-MB-453 cells): sensitized

CS(=O)(=O)N1CCN(Cc2cc3nc(-c4cccc5[nH]ncc45)nc(N4CCOCC4)c3s2)CC1 [GDC-0941]
sensitization to ferroptosis (cell death) induced by RSL3 (BT474 cells): sensitized
sensitization to ferroptosis (cell death) induced by RSL3 (MDA-MB-453 cells): sensitized

CCC(=O)N1CCN(c2ccc(-n3c(=O)ccc4cnc5ccc(-c6cnc7ccccc7c6)cc5c43)cc2C(F)(F)F)CC1 [Torin]
sensitization to ferroptosis (cell death) induced by RSL3 (BT474 cells): sensitized
sensitization to ferroptosis (cell death) induced by RSL3 (MDA-MB-453 cells): sensitized

CO[C@H]1C[C@@H]2CC[C@@H](C)[C@@](O)(O2)C(=O)C(=O)N2CCCC[C@H]2C(=O)O[C@H]([C@H](C)C[C@@H]2CC[C@@H](OC(=O)C(C)(CO)CO)[C@H](OC)C2)CC(=O)[C@H](C)/C=C(\C)[C@@H](O)[C@@H](OC)C(=O)[C@H](C)C[C@H](C)/C=C/C=C/C=C/1C [CCI-779, Temsirolimus]
sensitization to ferroptosis (cell death) induced by RSL3 (BT474 cells): sensitize
sensitization to ferroptosis (cell death) induced by RSL3 (MDA-MB-453 cells): sensitize

Cc1nnc(-c2ccc(N3CCC(Oc4cc(F)ccc4Cl)CC3)nn2)o1 [CAY10566]
sensitization to ferroptosis (cell death) induced by RSL3 (BT474 cells): sensitized the effect of RSL3
sensitization to ferroptosis (cell death) induced by RSL3 (MDA-MB-453 cells): sensitized the effect of RSL3
